Where “and” joins values, the source holds several entries; their conditions need not be identical. Identical values can stand only once. Like-named read-outs stand apart in the source and are kept apart here. Marks after values point to notes of the source that are not given here.
Legend:
Kunming mice [1] = assay type: in vivo
male BALB/c mice [2] = test: cancer-induced pain (CIP) model, gross behavior; assay type: in vivo; conditions: 14th day after inoculation
Method: (§1) BALB/c mice were taken, and the right sciatic nerve was exposed; ascites containing 5×10^4 Meth A sarcoma cells were injected into the proximal nerve near the sciatic nerve trochanter far from the tendon branch of the posterior biceps, the wound was closed, and the same volume of normal saline was injected into the left side by performing a sham operation.
On the 4th, 7th, 10th and 14th days after inoculation, spontaneous pain and foot drop and the like occurred before the occurrence of thermal sensitivity and mechanical pain sensitivity behaviors, […]

Female Kunming mice [3] = system: Female Kunming mice
Female Kunming mice [4] = system: Female Kunming mice; remark: listed apart in the source
male BALB/c mice [5] = test: cancer-induced pain (CIP) model, thermosensitive test; assay type: in vivo
Method: Influence of Analgesic Polypeptides on Neuralgia in a Cancer-Induced Pain (CIP) Model
A number of male BALB/c mice each weighing 25-30 g were used.
Von Fery monofilament; a microsyringe, 5 mg/mL solutions of polypeptides I, II and II I; normal saline.
as §1
1.3.1 Thermosensitive Test
On the 4th, 7th, 10th and 14th days after inoculation, the latency of foot lifting caused by heat radiation stimulation to animals was observed, and the heat radiation intensity was adjusted to cause the latency of foot lifting of normal mice to be (10±2) s.
All data was expressed as M±SD and subjected to one-way ANOVA.

Kunming mice [6] = conditions: mouse, in vivo
Female Kunming mice [7] = system: Female Kunming mice; remark: listed apart in the source
Female Kunming mice [8] = assay type: in vivo
SD rats = test: pain threshold of trigeminal nerve (trigeminal neuralgia model); assay type: in vivo; conditions: for highest pain threshold on the operative side / pain threshold on the opposite side: 3 h after injection; for Pain threshold: intraperitoneal
[9] = 50 μg/kg, injected subcutaneously
[10] = 100 μg/kg, injected subcutaneously

In the case of “Gly-Ser-Cys-Ser-Thr-Pro-Pro-d{Cys}-Val-Leu-Tyr-Ser [Polypeptide I]”, the “Pain threshold (tail flick)” value (Kunming mice [1]; 0 min) is reported as 2.31 ± 0.12 s, the “Pain threshold (tail flick)” value (Kunming mice [1]; 15 min) is reported as 2.12 ± 0.21^∧∧ s and the “Pain threshold (tail flick)” value (Kunming mice [1]; 30 min) is reported as 2.12 ± 0.12 s. The “Pain threshold (tail flick)” value (Kunming mice [1]; 45 min) was 3.22 ± 0.12^∧ s, the “Pain threshold (tail flick)” value (Kunming mice [1]; 60 min) was 2.12 ± 0.21*^∧ s and the “Pain threshold (tail flick)” value (Kunming mice [1]; 75 min) was 2.12 ± 0.12 s. For the same substance, the “Pain threshold (tail flick)” value (Kunming mice [1]; 90 min) was 2.32 ± 0.14 s, the “difference from the conotoxin group during a time period (^^P<0.01)” value (Kunming mice [1]; mouse, in vivo) was “significantly different from the conotoxin group” and the “left foot lifting behavior” value (male BALB/c mice [2]) was “obviously observed”. For the same substance, the “Duration of the immobility of mice in tail suspension tests” value (“Duration of the immobility of mice” for short) (Female Kunming mice [3]; 1 h) was 20.39 ± 1.21^ s, the “Duration of the immobility of mice” value (Female Kunming mice [3]; 24 h) was 18.99 ± 1.48 s and the “Duration of the immobility of mice” value (Female Kunming mice [3]; Time 0) was 20.57 ± 1.65 s. For the same substance, the “data of tail suspension test compared with the normal saline group” value (Female Kunming mice [3]; mouse, in vivo, ip) was “no significant difference”, the “toxic side effects compared with the conotoxin (tail suspension)” value (Female Kunming mice [3]; mouse, in vivo, ip) was “lower toxic side effects” and the “Movement duration of mice in forced swimming tests” value (“Movement duration of mice” for short) (Female Kunming mice [4]; 1 h) was 20.39 ± 1.21^ s. The “Movement duration of mice” value (Female Kunming mice [4]; 24 h) was 18.99 ± 1.48 s, the “Movement duration of mice” value (Female Kunming mice [4]; Time 0) was 20.57 ± 1.65 s and the “toxic side effects compared with the conotoxin (forced swimming)” value (Female Kunming mice [4]; mouse, in vivo, ip) was “lower toxic side effects”. The “increase of the latency of foot lifting” value (male BALB/c mice [5]; 14th day after inoculation) was “particularly significant”, the “Latency of foot lifting before administration” value (male BALB/c mice [5]; heat radiation stimulation, before administration) was 10.56 ± 0.89 and the “Latency (D) of foot lifting after administration” value (“Latency (D) of foot lifting” below) (male BALB/c mice [5]; heat radiation stimulation, day 4) was 10.01 ± 0.23. The “Latency (D) of foot lifting” value (male BALB/c mice [5]; heat radiation stimulation, day 7) was 9.26 ± 0.99, the “Latency (D) of foot lifting” value (male BALB/c mice [5]; heat radiation stimulation, day 10) was 8.56 ± 0.23 and the “Latency (D) of foot lifting” value (male BALB/c mice [5]; heat radiation stimulation, day 14) was 7.44 ± 0.85. For the same substance, the “analgesic effects in formalin-induced pain experiments” value (Kunming mice [6]) was “good analgesic effects”, the “cumulative foot licking time, Phase I” value (Kunming mice [6]) was 46.44 ± 10.28*^ and the “cumulative foot licking time, Phase II” value (Kunming mice [6]) was 42.10 ± 14.32*^. For the same substance, the “Movement distances of mice in open field tests” value (Female Kunming mice [7]; 1 h) was 20.39 ± 1.21^, the “Movement distances of mice in the center area in open field tests” value (Female Kunming mice [7]; 1 h) was 20.39 ± 1.21^ and the “Movement distances of mice in the peripheral area in open field tests” value (Female Kunming mice [7]; 1 h) was 20.39 ± 1.21^. For the same substance, the “Number of entrances to the center area in open field tests” value (shortened to “Number of entrances to the center area”) (Female Kunming mice [7]; 1 h) was 20.39 ± 1.21^, the “Number of entrances to the peripheral area in open field tests” value (Female Kunming mice [7]; 1 h) was 20.39 ± 1.21^ and the “Residence time in the center area in open field tests” value (“Residence time in the center area” below) (Female Kunming mice [7]; 1 h) was 20.39 ± 1.21^ s. For the same substance, the “Residence time in the peripheral area in open field tests” value (“Residence time in the peripheral area” for short) (Female Kunming mice [7]; 1 h) was 20.39 ± 1.21^ s, the “Movement distances of mice in open field tests” value (Female Kunming mice [7]; 24 h) was 18.99 ± 1.48 m and the “Movement distances of mice in the center area in open field tests” value (Female Kunming mice [7]; 24 h) was 18.99 ±1.48 m. For the same substance, the “Movement distances of mice in the peripheral area in open field tests” value (Female Kunming mice [7]; 24 h) was 18.99 ± 1.48 m, the “Number of entrances to the center area” value (Female Kunming mice [7]; 24 h) was 18.99 ± 1.48 and the “Number of entrances to the peripheral area in open field tests” value (Female Kunming mice [7]; 24 h) was 18.99 ± 1.48. For the same substance, the “Residence time in the center area” value (Female Kunming mice [7]; 24 h) was 18.99 ± 1.48 s, the “Residence time in the peripheral area” value (Female Kunming mice [7]; 24 h) was 18.99 ± 1.48 s and the “Movement distances of mice in open field tests” value (Female Kunming mice [7]; Time 0) was 20.57 ± 1.65 m. For the same substance, the “Movement distances of mice in the center area in open field tests” value (Female Kunming mice [7]; Time 0) was 20.57 ±1.65 m, the “Movement distances of mice in the peripheral area in open field tests” value (Female Kunming mice [7]; Time 0) was 20.57 ± 1.65 m and the “Number of entrances to the center area” value (Female Kunming mice [7]; Time 0) was 20.57 ± 1.65. The “Number of entrances to the peripheral area in open field tests” value (Female Kunming mice [7]; Time 0) was 20.57 ± 1.65, the “Residence time in the center area” value (Female Kunming mice [7]; Time 0) was 20.57 ± 1.65 s and the “Residence time in the peripheral area” value (Female Kunming mice [7]; Time 0) was 20.57 ± 1.65 s. The “side effects compared with conotoxin (open field)” value (Female Kunming mice [7]; mouse, in vivo, ip) was “lower side effects”, the “various indexes in open field experiments compared with the normal saline group” value (Female Kunming mice [7]; mouse, in vivo, ip) was “no significant difference” and the Pain threshold (Female Kunming mice [8]; 0 min) was 28.32 ± 0.21 s. For the same substance, the Pain threshold (Female Kunming mice [8]; mouse, in vivo, ip) was 25.21 ± 0.42^∧∧ s and 31.32 ± 0.32*^∧ s and 24.23 ± 0.42^∧ s and 21.39 ± 0.45^∧ s and 29.23 ± 0.42 s and 23.44 ± 0.24 s, the “heat thresholds of mice compared with the normal saline negative control group” value (Female Kunming mice [8]; mouse, in vivo, ip) was “effectively increase the heat thresholds of mice” and the animal reaction thresholds (SD rats; 50 μg/kg and 100 μg/kg, injected subcutaneously) was “significantly increased”. The “time the pain thresholds lasted” value (SD rats; [9]) was 1 h, the “highest pain threshold on the operative side” value (SD rats; [9]) was 2.3 ± 0.5 g and the “pain threshold on the opposite side” value (SD rats; [9]) was 1.2 ± 0.2 g. The “time the effect on the operative side lasted” value (SD rats; [10]) was “about 8 h”, the “highest pain threshold on the operative side” value (SD rats; [10]) was 7.4 ± 0.9 g and the “pain threshold on the opposite side” value (SD rats; [10]) was 3.2 ± 1.3 g. The pain threshold change (SD rats; 300 μg/kg, subcutaneously) was “not significantly increased”, the Pain threshold (SD rats; Dose 50 (μg/kg), 0 h) was 25.44 ± 0.23 s and the Pain threshold (SD rats; Dose 50 (μg/kg), 1 h) was 26.35 ± 0.65 s. It also gave a Pain threshold (SD rats; Dose 50 (μg/kg), 2 h) of 26.89 ± 0.23 s, a Pain threshold (SD rats; Dose 50 (μg/kg), 3 h) of 27.56 ± 0.56 s and a Pain threshold (SD rats; Dose 50 (μg/kg), 4 h) of 26.45 ± 0.78 s. For the same substance, the Pain threshold (SD rats; Dose 50 (μg/kg), 5 h) was 25.89 ± 0.12 s, the Pain threshold (SD rats; Dose 100 (μg/kg), 0 h) was 25.11 ± 0.56 s and the Pain threshold (SD rats; Dose 100 (μg/kg), 1 h) was 27.86 ± 0.95 s. The Pain threshold (SD rats; Dose 100 (μg/kg), 2 h) was 28.12 ± 0.65 s, the Pain threshold (SD rats; Dose 100 (μg/kg), 3 h) was 29.46 ± 0.61 s and the Pain threshold (SD rats; Dose 100 (μg/kg), 4 h) was 26.43 ± 0.62 s. It also gave a Pain threshold (SD rats; Dose 100 (μg/kg), 5 h) of 25.68 ± 0.33 s, a Pain threshold (SD rats; Dose 300 (μg/kg), 0 h) of 26.65 ± 0.41 s and a Pain threshold (SD rats; Dose 300 (μg/kg), 1 h) of 30.56 ± 0.11 s. The Pain threshold (SD rats; Dose 300 (μg/kg), 2 h) was 30.53 ± 0.62 s, the Pain threshold (SD rats; Dose 300 (μg/kg), 3 h) was 29.56 ± 0.12 s and the Pain threshold (SD rats; Dose 300 (μg/kg), 4 h) was 28.15 ± 0.32 s. For the same substance, the Pain threshold (SD rats; Dose 300 (μg/kg), 5 h) was 27.15 ± 0.65 s.

Source: patent US11192921B2 (priority 2017, dated 2021)
